Laboratory results from patent publication US20240415819A1, “MACROCYCLIC COMPOUNDS AS PROTEASOME SUBUNIT BETA TYPE-5 INHIBITORS” (Lead Discovery Center GmbH, priority 2021, published 2024).

Tests used:
[1] = target: T1, β5 subunit of the human immunoproteasome (IPS) (Homo sapiens, UniProt P28062); test: β5 inhibition assay, human immunoproteasome (Suc-LLVY-AMC); format: biochemical; conditions: IC50 class, Suc-LLVY-AMC substrate
T1 construct: purchased Boston Biochem E-370
How it was run: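 Human immunoproteasome (1 nM final) was preincubated 10 min at RT with compound in 100 mM HEPES pH 7.5, 50 mM NaCl, 0.02% SDS, 1 mM DTT. Suc-LLVY-AMC (22.6 μM final) was then added for 4 h at RT in the dark. After stopping with 1 μM bortezomib, AMC fluorescence was read (ex 355/em 460 nm).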

hPMBC = test: Chymotrypsin-like ProteasomeGlo assay in hPBMC; format: cell-based; conditions: Homo sapiens; read-out: Pglo hPBMC
How it was run: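 B cells isolated from human PBMC (buffy coats, density gradient, magnetic isolation). Cells treated with compound for 105 min at 37 °C, with staurosporine and DMSO included. Chymotrypsin-like proteasome activity read by luminescence with Suc-LLVY-Glo substrate to derive IC50.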

[2] = target: T2, β5 subunit of the human constitutive proteasome (CPS) (Homo sapiens, UniProt P28074); test: β5 inhibition assay, human constitutive proteasome (Suc-LLVY-AMC); format: biochemical; conditions: IC50 class, Suc-LLVY-AMC substrate
T2 construct: purchased Boston Biochem E-360
Method: The enzymatic activity of the β5 subunit of the human constitutive proteasome (CPS) is analyzed. In another assay, which differs from the assay of the human constitutive proteasome only in using the human immunoproteasome (IPS) the enzymatic activity of the β5 subunit of the human immunoproteasome (IPS) is analyzed. […] Inhibition is indicated as IC50 [nM] (“-”=not measured).

Row | SMILES | IC50 [1] [nM] | IC50 (hPMBC) [nM] | IC50 [2] [nM]
1 | CNCCOCC(=O)N[C@H]1CC(=O)N2CCCC(CCOc3ccc(C)c(c3)CNC(=O)[C@H](CCc3ccccc3)NC1=O)C2 (stereo partly drawn) [Compound 130, N-((9S,12S)-5^4-methyl-8,11,14-trioxo-9-phenethyl-4-oxa-7,10-diaza-1(3,1)-piperidina-5(1,3)-benzenacyclotetradecaphane-12-yl)-2-(2-(methylamino)ethoxy)acetamide] | < 100 | < 100 | < 100
2 | CC(=O)N[C@H]1CCC(=O)N2CCCC(CCOc3ccc(C)c(c3)CNC(=O)[C@H](CCc3ccccc3)NC1=O)C2 (stereo partly drawn) [Compound 215, N-((9S,12S)-5^4-methyl-8,11,15-trioxo-9-phenethyl-4-oxa-7,10-diaza-1(3,1)-piperidina-5(1,3)-benzenacyclopentadecaphane-12-yl)acetamide] | < 100 | < 100 | < 100
3 | C=CC(=O)N[C@H]1CC(=O)N2CCCC(CCOc3ccc(C)c(c3)CNC(=O)[C@H](CCc3ccccc3)NC1=O)C2 (stereo partly drawn) [Compound 181, N-((9S,12S)-5^4-methyl-8,11,14-trioxo-9-phenethyl-4-oxa-7,10-diaza-1(3,1)-piperidina-5(1,3)-benzenacyclotetradecaphane-12-yl)acrylamide] | < 100 | < 100 | < 100
4 | CC(=O)N[C@H]1CCC(=O)N2CCCC(C2)Oc2ccc(C)c(c2)CNC(=O)[C@H](CCc2ccccc2)NC1=O (stereo partly drawn) [Compound 148, N-((7S,10S)-3^4-methyl-6,9,13-trioxo-7-phenethyl-2-oxa-5,8-diaza-1(3,1)-piperidina-3(1,3)-benzenacyclotridecaphane-10-yl)acetamide] | < 100 | 500 to 1000 | 1000 to 5000
5 | Cc1ccc2cc1CNC(=O)[C@H](CCc1ccccc1)NC(=O)[C@@H](NC(=O)CCc1ccc(Br)cc1)CC(=O)N1CCCC(CCO2)C1 (stereo partly drawn) [Compound 175, 3-(4-bromophenyl)-N-((9S,12S)-5^4-methyl-8,11,14-trioxo-9-phenethyl-4-oxa-7,10-diaza-1(3,1)-piperidina-5(1,3)-benzenacyclotetradecaphane-12-yl)propanamide] | < 100 | < 100 | < 100
6 | Cc1ccc2cc1CNC(=O)[C@H](CCc1ccccc1)NC(=O)[C@@H](NC(=O)C1CCC(C(F)(F)F)N1)CC(=O)N1CCCC(CCO2)C1 (stereo partly drawn) [Compound 157, N-((9S,12S)-5^4-methyl-8,11,14-trioxo-9-phenethyl-4-oxa-7,10-diaza-1(3,1)-piperidina-5(1,3)-benzenacyclotetradecaphane-12-yl)-5-(trifluoromethyl)pyrrolidine-2-carboxamide] | < 100 | < 100 | < 100
7 | CC(=O)N[C@H]1CC(=O)N2CCCC(CCOc3ccc(F)c(c3)CNC(=O)[C@H](CCc3ccccc3)NC1=O)C2 (stereo partly drawn) [Compound 205, N-((9S,12S)-5^4-fluoro-8,11,14-trioxo-9-phenethyl-4-oxa-7,10-diaza-1(3,1)-piperidina-5(1,3)-benzenacyclotetradecaphane-12-yl)acetamide] | < 100 | < 100 | < 100
8 | Cc1ccc2cc1CNC(=O)[C@H](CCc1ccccc1)NC(=O)[C@@H](N)CC(=O)N1CCCC(CCO2)C1 (stereo partly drawn) [Compound 8, (9S,12S)-12-amino-5^4-methyl-9-phenethyl-4-oxa-7,10-diaza-1(3,1)-piperidina-5(1,3)-benzenacyclotetradecaphane-8,11,14-trione] | < 100 | 100 to 500 | < 100
9 | Cc1ccc2cc1CNC(=O)[C@H](CCc1ccccc1)NC(=O)[C@@H](NC(=O)CN1CCNCC1)CC(=O)N1CCCC(CCO2)C1 (stereo partly drawn) [Compound 126, N-((9S,12S)-5^4-methyl-8,11,14-trioxo-9-phenethyl-4-oxa-7,10-diaza-1(3,1)-piperidina-5(1,3)-benzenacyclotetradecaphane-12-yl)-2-(piperazin-1-yl)acetamide] | < 100 | < 100 | < 100
10 | Cc1ccc2cc1CNC(=O)[C@H](C)NC(=O)CCC(=O)N1CCCC(CCO2)C1 (stereo partly drawn) [Compound 78, (9S)-5^4,9-dimethyl-4-oxa-7,10-diaza-1(3,1)-piperidina-5(1,3)-benzenacyclotetradecaphane-8,11,14-trione] | 100 to 500 | 500 to 1000 | 1000 to 5000
11 | COc1ccc(CC(=O)N[C@H]2CC(=O)N3CCCC(CCOc4ccc(C)c(c4)CNC(=O)[C@H](CCc4ccccc4)NC2=O)C3)cc1 (stereo partly drawn) [Compound 83, 2-(4-methoxyphenyl)-N-((9S,12S)-5^4-methyl-8,11,14-trioxo-9-phenethyl-4-oxa-7,10-diaza-1(3,1)-piperidina-5(1,3)-benzenacyclotetradecaphane-12-yl)acetamide] | < 100 | < 100 | < 100
12 | COc1ccccc1CC(=O)N[C@H]1CC(=O)N2CCCC(CCOc3ccc(C)c(c3)CNC(=O)[C@H](CCc3ccccc3)NC1=O)C2 (stereo partly drawn) [Compound 84, 2-(2-methoxyphenyl)-N-((9S,12S)-5^4-methyl-8,11,14-trioxo-9-phenethyl-4-oxa-7,10-diaza-1(3,1)-piperidina-5(1,3)-benzenacyclotetradecaphane-12-yl)acetamide] | < 100 | < 100 | < 100
13 | CC(=O)N[C@H]1CCC(=O)N2CCOC(CCOc3ccc(C)c(c3)CNC(=O)[C@H](CCc3ccccc3)NC1=O)C2 (stereo partly drawn) [Compound 143, N-((9S,12S)-5^4-methyl-8,11,15-trioxo-9-phenethyl-4-oxa-7,10-diaza-1(2,4)-morpholina-5(1,3)-benzenacyclopentadecaphane-12-yl)acetamide] | < 100 | < 100 | < 100
14 | Cc1ccc2cc1CNC(=O)C(c1cnn(C)c1)NC(=O)CCC(=O)N1CCCC(CCO2)C1 (stereo not drawn) [Compound 116, 5^4-methyl-9-(1-methyl-1H-pyrazol-4-yl)-4-oxa-7,10-diaza-1(3,1)-piperidina-5(1,3)-benzenacyclotetradecaphane-8,11,14-trione] | 100 to 500 | 500 to 1000 | > 5000

Second part, the compound after the results:

Row | IC50 [1] [nM] | IC50 (hPMBC) [nM] | IC50 [2] [nM] | SMILES
15 | < 100 | < 100 | < 100 | Cc1ccc2cc1CNC(=O)[C@H](CCc1ccccc1)NC(=O)[C@@H](NC(=O)C1(C)COC1)CC(=O)N1CCCC(CCO2)C1 (stereo partly drawn) [Compound 287, 3-methyl-N-((9S,12S)-5^4-methyl-8,11,14-trioxo-9-phenethyl-4-oxa-7,10-diaza-1(3,1)-piperidina-5(1,3)-benzenacyclotetradecaphane-12-yl)oxetane-3-carboxamide]
16 | 1000 to 5000 | 1000 to 5000 | 1000 to 5000 | CC(=O)N[C@H]1CCCC(=O)N2CCC2(C)COc2ccc(C)c(c2)CNC(=O)[C@H](CCc2ccccc2)NC1=O (stereo partly drawn) [Compound 281, N-((8S,11S)-1^2,4^4-dimethyl-7,10,15-trioxo-8-phenethyl-3-oxa-6,9-diaza-1(2,1)-azetidina-4(1,3)-benzenacyclopentadecaphane-11-yl)acetamide]
17 | < 100 | < 100 | < 100 | COCCOCCOCCOCCOCCC(=O)N[C@H]1CC(=O)N2CCCC(CCOc3ccc(C)c(c3)CNC(=O)[C@H](CCc3ccccc3)NC1=O)C2 (stereo partly drawn) [Compound 219, N-((9S,12S)-5^4-methyl-8,11,14-trioxo-9-phenethyl-4-oxa-7,10-diaza-1(3,1)-piperidina-5(1,3)-benzenacyclotetradecaphane-12-yl)-2,5,8,11,14-pentaoxaheptadecan-17-amide]
18 | < 100 | < 100 | < 100 | Cc1ccc2cc1CNC(=O)[C@H](CCc1ccccc1)NC(=O)[C@@H](NS(=O)(=O)Cc1ccccc1)CC(=O)N1CCCC(CCO2)C1 (stereo partly drawn) [Compound 216, N-((9S,12S)-5^4-methyl-8,11,14-trioxo-9-phenethyl-4-oxa-7,10-diaza-1(3,1)-piperidina-5(1,3)-benzenacyclotetradecaphane-12-yl)-1-phenylmethanesulfonamide]
19 | 100 to 500 | 500 to 1000 | 100 to 500 | Cc1ccc2cc1CNC(=O)[C@@H](CCc1ccccc1)NC(=O)[C@@H](NC(=O)OCc1ccccc1)CC(=O)N1CCC[C@H](CCO2)C1 [Compound 289, benzyl ((13R,9R,12S)-5^4-methyl-8,11,14-trioxo-9-phenethyl-4-oxa-7,10-diaza-1(3,1)-piperidina-5(1,3)-benzenacyclotetradecaphane-12-yl)carbamate]
20 | < 100 | < 100 | < 100 | Cc1ccc2cc1CNC(=O)[C@H](CCc1ccccc1)NC(=O)[C@@H](NC(=O)C(C)(C)CO)CC(=O)N1CCCC(CCO2)C1 (stereo partly drawn) [Compound 284, 3-hydroxy-2,2-dimethyl-N-((9S,12S)-5^4-methyl-8,11,14-trioxo-9-phenethyl-4-oxa-7,10-diaza-1(3,1)-piperidina-5(1,3)-benzenacyclotetradecaphane-12-yl)propanamide]
21 | < 100 | < 100 | < 100 | CCC(CC)(CO)C(=O)N[C@H]1CC(=O)N2CCCC(CCOc3ccc(C)c(c3)CNC(=O)[C@H](CCc3ccccc3)NC1=O)C2 (stereo partly drawn) [Compound 285, 2-ethyl-2-(hydroxymethyl)-N-((9S,12S)-5^4-methyl-8,11,14-trioxo-9-phenethyl-4-oxa-7,10-diaza-1(3,1)-piperidina-5(1,3)-benzenacyclotetradecaphane-12-yl)butanamide]
